ChEMBL document CHEMBL3632603, “Synthesis of biscoumarin and dihydropyran derivatives with promising antitumor and antibacterial activities” (Bioorg Med Chem Lett, 2015)
≈ marks a conversion by molar mass, not a printed value.

Legend:
4T1 [1] = assay: Cytotoxicity against mouse 4T1 cells after 48 hrs by MTT assay; assay type: functional, cell-based; details: 4T1, 48 h
Staphylococcus aureus [2] = assay: Antibacterial activity against methicillin-resistant Staphylococcus aureus USA 300 LAC after 20 hrs by CLSI broth microdilution method; assay type: functional
[3] = Cytotoxicity against human PANC1 cells after 48 hrs by MTT assay; assay type: functional, cell-based; details: PANC-1, 48 h
Staphylococcus aureus [4] = assay: Antibacterial activity against methicillin-resistant Staphylococcus aureus XJ 75302 after 20 hrs by CLSI broth microdilution method; assay type: functional
Staphylococcus aureus [5] = assay: Antibacterial activity against methicillin-resistant Staphylococcus aureus Mu50 ATCC 700699 after 20 hrs by CLSI broth microdilution method; assay type: functional
[6] = Cytotoxicity against human HuTu 80 cells after 48 hrs by MTT assay; assay type: functional, cell-based; details: HuTu80, 48 h
Staphylococcus aureus [7] = assay: Antibacterial activity against Staphylococcus aureus ATCC 29213 after 20 hrs by CLSI broth microdilution method; assay type: functional
4T1 [8] = assay: Induction of apoptosis in mouse 4T1 cells assessed as viable cells at 5 ug/ml after 48 hrs by Annexin V/Alexa Fuor 488/PI-staining based flow cytometric analysis (Rvb= 91.7%); assay type: functional; details: 4T1, 48 h, read-out: Activity
4T1 [9] = assay: Induction of apoptosis in mouse 4T1 cells assessed as increase in early and late apoptotic cells at 5 ug/ml after 48 hrs by Annexin V/Alexa Fuor 488/PI-staining based flow cytometric analysis relative to vehicle control; assay type: functional
4T1 [10] = assay: Induction of apoptosis in mouse 4T1 cells assessed as early apoptotic cells at 5 ug/ml after 48 hrs by Annexin V/Alexa Fuor 488/PI-staining based flow cytometric analysis (Rvb=4.4%); assay type: functional
4T1 [11] = assay: Induction of apoptosis in mouse 4T1 cells assessed as necrotic cells at 5 ug/ml after 48 hrs by Annexin V/Alexa Fuor 488/PI-staining based flow cytometric analysis (Rvb=0.5%); assay type: functional
4T1 [12] = assay: Induction of apoptosis in mouse 4T1 cells assessed as late apoptotic cells at 5 ug/ml after 48 hrs by Annexin V/Alexa Fuor 488/PI-staining based flow cytometric analysis (Rvb=3.5%); assay type: functional

Molecule	IC50 (4T1 [1]) [µg/mL]	IC90 (4T1 [1]) [µg/mL]	MIC (Staphylococcus aureus [2]) [µg/mL]	IC50 [3] [µg/mL]	IC90 [3] [µg/mL]	MIC (Staphylococcus aureus [4]; XJ 75302, 20 h) [µg/mL]	MIC (Staphylococcus aureus [5]; Mu50 ATCC 700699, 20 h) [µg/mL]	IC50 [6] [µg/mL]	IC90 [6] [µg/mL]	MIC (Staphylococcus aureus [7]; ATCC 29213, 20 h) [µg/mL]	viability at 5 µg/mL (4T1 [8]) [%]	fold change (FC) (4T1 [9])	Activity (4T1 [10]) [%]	Activity (4T1 [11]) [%]	Activity (4T1 [12]) [%]	MIC (Staphylococcus aureus [4]) [µg/mL]	MIC (Staphylococcus aureus [5]) [µg/mL]	MIC (Staphylococcus aureus [7]) [µg/mL]
CC1(C)CC(=O)C2=C(C1)OC(N)=C(C#N)C2c1cccc(C(F)(F)F)c1 (stereo not given)	287 (≈ 791 µM)	575 (≈ 1590 µM)	> 256	248 (≈ 685 µM)	503 (≈ 1390 µM)	> 256	> 256	388 (≈ 1070 µM)	788 (≈ 2170 µM)	> 256	–	–	–	–	–	–	–	–
CC1(C)CC(=O)C2=C(C1)OC(N)=C(C#N)C2c1cccc(Oc2ccccc2)c1 (stereo not given)	481 (≈ 1240 µM)	927 (≈ 2400 µM)	> 256	383 (≈ 991 µM)	759 (≈ 1960 µM)	> 256	> 256	900 (≈ 2330 µM)	1700 (≈ 4400 µM)	> 256	–	–	–	–	–	–	–	–
CC(C)(O/N=C(\C(=O)N[C@@H]1C(=O)N2C(C(=O)[O-])=C(C[n+]3ccccc3)CS[C@H]12)c1csc(N)n1)C(=O)O [CEFTAZIDIME]	–	–	64 (≈ 117 µM)	–	–	> 256	256 (≈ 468 µM)	–	–	> 8	–	–	–	–	–	–	–	–
N#CC1=C(N)Oc2c(c(=O)oc3ccccc23)C1c1ccc(C#N)cc1 (stereo not given)	115 (≈ 336 µM)	208 (≈ 609 µM)	> 256	150 (≈ 439 µM)	286 (≈ 838 µM)	> 256	> 256	121 (≈ 355 µM)	221 (≈ 648 µM)	> 256	–	–	–	–	–	–	–	–
N#CC1=C(N)OC2=C(C(=O)CCC2)C1c1cc(F)cc(F)c1 (stereo not given)	164 (≈ 543 µM)	308 (≈ 1020 µM)	> 256	319 (≈ 1060 µM)	624 (≈ 2060 µM)	> 256	> 256	446 (≈ 1480 µM)	824 (≈ 2730 µM)	> 256	–	–	–	–	–	–	–	–
O=c1oc2ccccc2c(O)c1C(c1ccc(Br)cc1)c1c(O)c2ccccc2oc1=O	19.3 (≈ 39.2 µM)	36.7 (≈ 74.7 µM)	8 (≈ 16.3 µM)	31.8 (≈ 64.7 µM)	61.4 (≈ 125 µM)	16 (≈ 32.6 µM)	8 (≈ 16.3 µM)	29.7 (≈ 60.5 µM)	52.6 (≈ 107 µM)	16 (≈ 32.6 µM)	30.2	>8	44	0.3	25.5	–	–	–
CCN1CCN(C(=O)N[C@@H](C(=O)N[C@@H]2C(=O)N3[C@@H]2SC(C)(C)[C@@H]3C(=O)O)c2ccccc2)C(=O)C1=O [PIPERACILLIN]	–	–	8 (≈ 15.5 µM)	–	–	> 128	> 128	–	–	2 (≈ 3.86 µM)	–	–	–	–	–	–	–	–
CO/N=C(\C(=O)N[C@@H]1C(=O)N2C(C(=O)O)=C(CSc3nc(=O)c(O)nn3C)CS[C@H]12)c1csc(N)n1 [CEFTRIAXONE]	–	–	32 (≈ 57.7 µM)	–	–	> 256	256 (≈ 462 µM)	–	–	2 (≈ 3.61 µM)	–	–	–	–	–	–	–	–
COc1ccc(C2C(C#N)=C(N)Oc3c2c(=O)oc2ccccc32)cc1OC (stereo not given)	107 (≈ 283 µM)	194 (≈ 516 µM)	> 256	168 (≈ 448 µM)	310 (≈ 825 µM)	> 256	> 256	132 (≈ 352 µM)	232 (≈ 618 µM)	> 256	–	–	–	–	–	–	–	–
C[C@H]1COc2c(N3CCN(C)CC3)c(F)cc3c(=O)c(C(=O)O)cn1c23.C[C@H]1COc2c(N3CCN(C)CC3)c(F)cc3c(=O)c(C(=O)O)cn1c23.O [LEVOFLOXACIN]	–	–	8	–	–	4	4	–	–	< 0.125	–	–	–	–	–	–	–	–
CC1(C)CC(=O)C2=C(C1)OC(N)=C(C#N)C2c1ccccc1C#N (stereo not given)	249 (≈ 778 µM)	503 (≈ 1580 µM)	> 256	242 (≈ 757 µM)	512 (≈ 1600 µM)	> 256	> 256	414 (≈ 1300 µM)	814 (≈ 2550 µM)	> 256	–	–	–	–	–	–	–	–
O=c1oc2ccccc2c(O)c1C(c1ccc(F)c(Cl)c1)c1c(O)c2ccccc2oc1=O	22.9 (≈ 49.3 µM)	43.2 (≈ 92.9 µM)	8 (≈ 17.2 µM)	30.8 (≈ 66.2 µM)	55.8 (≈ 120 µM)	16 (≈ 34.4 µM)	8 (≈ 17.2 µM)	32.6 (≈ 70.1 µM)	64.5 (≈ 139 µM)	16 (≈ 34.4 µM)	–	–	–	–	–	–	–	–
N#CC1=C(N)Oc2c(c(=O)oc3ccccc23)C1c1ccc(Br)cc1 (stereo not given)	96.2 (≈ 243 µM)	172 (≈ 435 µM)	> 256	176 (≈ 446 µM)	328 (≈ 829 µM)	> 256	> 256	140 (≈ 355 µM)	274 (≈ 692 µM)	> 256	–	–	–	–	–	–	–	–
CC(C)(C)c1ccc(C(c2c(O)c3ccccc3oc2=O)c2c(O)c3ccccc3oc2=O)cc1	24.6 (≈ 52.4 µM)	47.1 (≈ 101 µM)	32 (≈ 68.3 µM)	28 (≈ 59.7 µM)	53.2 (≈ 113 µM)	16 (≈ 34.2 µM)	16 (≈ 34.2 µM)	31.1 (≈ 66.5 µM)	55.5 (≈ 119 µM)	16 (≈ 34.2 µM)	–	–	–	–	–	–	–	–
N#CC1=C(N)OC2=C(C(=O)CCC2)C1c1cccc(Br)c1 (stereo not given)	157 (≈ 455 µM)	287 (≈ 830 µM)	> 256	368 (≈ 1070 µM)	704 (≈ 2040 µM)	> 256	> 256	281 (≈ 814 µM)	543 (≈ 1570 µM)	> 256	–	–	–	–	–	–	–	–
GENTAMICIN	–	–	0.25	–	–	–	–	–	–	–	–	–	–	–	–	64	32	0.12
COc1cc(C2C(C#N)=C(N)OC3=C2C(=O)CCC3)ccc1O (stereo not given)	114 (≈ 364 µM)	219 (≈ 700 µM)	> 256	232 (≈ 744 µM)	462 (≈ 1480 µM)	> 256	> 256	208 (≈ 666 µM)	399 (≈ 1280 µM)	> 256	–	–	–	–	–	–	–	–
